# Laboratory results reported in paper PMC5986654, “Combined HAT/EZH2 modulation leads to cancer-selective cell death” (Oncotarget, 2018).
# Legend:
# [1] = test system: U937 cells; experiment: U937 leukemia xenograft, human CD45+ cells in bone marrow; assay type: in vivo, mice; settings: 1 mg/kg i.p., day 16
# Description: Xenograft studies using NB4 and U937-AML cells were performed in NOG SCID mice under specific pathogen–free conditions. Cells (0.2 × 10^6 in 100 µL) were injected intravenously (retro orbital vein). Injected mice were randomly assigned to receive intra-peritoneal MC2884 (1 mg/kg) or vehicle for two weeks (8 doses) (10 mice per group). All animal procedures were performed in accordance with protocols approved by the local Committee for Animal Experimentation and with the permission of the Italian Health Ministry (n° 626/2015). At 16 days after injection, mice were sacrificed and the femurs and spleens were collected. Bone marrow (BM) and spleen cells were analyzed by FACS. To avoid non-specific stain, cells were mixed with mouse IgG and incubated with indicated antibodies for 30’. The mixture was depleted of erythrocytes and fixed (BD Pharmingen). […] Tumor growth was monitored by weekly bioluminescence imaging (BLI) acquisitions using an IVIS 3D Imaging System (Caliper Alameda, USA). To quantify bioluminescence, the integrated fluxes of photons (photons per s) within each area of interest were determined using the Living Images Software Package 3.2 (Caliper, Alameda, USA). […] Efficacy of drug treatment was assessed as inhibition of BLI emission comparing those MC2884 treated mice group and vehicle groups.
# [2] = test system: MePR2B; experiment: Cytotoxic effect on mesenchymal progenitor model MePR2B; assay type: cell-based; settings: immortalized non-cancer cells
# [3] = biological target: SIRT1 (Homo sapiens, UniProt Q96EB6); experiment: SIRT1 in vitro assay; assay type: biochemical
# Description: (§1) The HDAC1 and SIRT1 assays were performed as described previously.
# [4] = biological target: HDAC1 (Homo sapiens, UniProt Q13547); experiment: HDAC1 in vitro assay; assay type: biochemical
# Description: as §1
# [5] = Stability of MC2884 in cell culture medium (RP-HPLC); assay type: physicochemical
# Description: The compound was dissolved in DMEM at 50 µM and its concentration was measured by RP-HPLC using a ONYX 50 × 2 mm ID C18 column operating at 600 µL/min. The gradient applied was from 1% solvent B to 70% solvent B in 10 minutes. Solvent A was water with added 0.1% trifluoroacetic acid (TFA) and solvent B was acetonitrile with added 0.1% TFA. The eluate was monitored using a diode array detector with wavelengths set between 200–320 nm. The compound was eluted at 11.1 min. Peak integration was carried out on the chromatogram extracted at […], which is one of the compound absorbance maxima. A calibration curve was built by injecting solutions of the compound in DMSO at concentrations ranging between 1.5 µM and 200 µM. After incubation in DMEM compound concentration was determined at time points ranging between 0 and 72 hrs. As shown, half of compound was degraded after 10 h. At 72 hrs it was fully degraded under these conditions.
# [6] = biological target: KAT5 (Homo sapiens, UniProt Q92993); experiment: HAT in vitro assay, 10-dose IC50, KAT5; assay type: biochemical; settings: substrate Histone H2A, 3 μM Acetyl-CoA; read-out: Compound IC50 KAT5
# Description: For HAT in vitro assay, MC2884 activity was also tested in vitro and IC50 was calculated as indicated in the scheme. […] Reactions were carried out at 3 μM Acetyl-CoA. Empty cells indicate no inhibition or compound activity that could not be fit to an IC50 curve.
# Sequence of HDAC1 (Q13547 whole entry): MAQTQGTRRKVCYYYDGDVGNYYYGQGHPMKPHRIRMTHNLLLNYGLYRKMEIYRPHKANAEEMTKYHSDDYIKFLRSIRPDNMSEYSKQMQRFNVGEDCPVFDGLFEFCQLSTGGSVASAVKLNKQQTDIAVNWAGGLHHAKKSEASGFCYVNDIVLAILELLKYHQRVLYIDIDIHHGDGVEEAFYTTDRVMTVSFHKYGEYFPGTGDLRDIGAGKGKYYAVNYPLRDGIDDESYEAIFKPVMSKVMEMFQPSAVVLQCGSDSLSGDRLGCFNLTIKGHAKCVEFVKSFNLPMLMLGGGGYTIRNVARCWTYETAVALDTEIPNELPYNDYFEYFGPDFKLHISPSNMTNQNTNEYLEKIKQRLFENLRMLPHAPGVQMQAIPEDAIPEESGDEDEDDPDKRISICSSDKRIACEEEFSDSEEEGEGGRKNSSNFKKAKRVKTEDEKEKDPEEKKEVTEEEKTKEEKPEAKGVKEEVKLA
# Sequence of SIRT1 (Q96EB6 whole entry): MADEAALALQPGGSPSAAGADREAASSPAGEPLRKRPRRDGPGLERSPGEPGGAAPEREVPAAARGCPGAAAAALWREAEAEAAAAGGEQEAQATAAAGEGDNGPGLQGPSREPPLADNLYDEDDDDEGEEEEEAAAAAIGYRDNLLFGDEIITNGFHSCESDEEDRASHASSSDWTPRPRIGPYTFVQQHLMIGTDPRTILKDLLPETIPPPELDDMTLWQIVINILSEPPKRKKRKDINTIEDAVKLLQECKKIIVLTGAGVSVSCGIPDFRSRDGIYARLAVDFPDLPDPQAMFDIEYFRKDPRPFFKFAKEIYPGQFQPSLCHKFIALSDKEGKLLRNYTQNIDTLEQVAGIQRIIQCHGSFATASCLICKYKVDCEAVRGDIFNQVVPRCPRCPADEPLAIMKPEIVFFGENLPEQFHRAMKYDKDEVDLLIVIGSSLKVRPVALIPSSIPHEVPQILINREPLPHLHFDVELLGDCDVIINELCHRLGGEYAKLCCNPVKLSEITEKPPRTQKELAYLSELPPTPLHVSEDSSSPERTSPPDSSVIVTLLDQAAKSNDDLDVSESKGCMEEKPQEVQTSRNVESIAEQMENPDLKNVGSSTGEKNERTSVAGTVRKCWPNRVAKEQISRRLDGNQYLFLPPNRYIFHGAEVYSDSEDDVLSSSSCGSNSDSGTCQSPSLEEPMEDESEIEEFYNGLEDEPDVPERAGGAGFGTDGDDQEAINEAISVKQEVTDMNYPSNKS
# Sequence of KAT5 (Q92993 whole entry): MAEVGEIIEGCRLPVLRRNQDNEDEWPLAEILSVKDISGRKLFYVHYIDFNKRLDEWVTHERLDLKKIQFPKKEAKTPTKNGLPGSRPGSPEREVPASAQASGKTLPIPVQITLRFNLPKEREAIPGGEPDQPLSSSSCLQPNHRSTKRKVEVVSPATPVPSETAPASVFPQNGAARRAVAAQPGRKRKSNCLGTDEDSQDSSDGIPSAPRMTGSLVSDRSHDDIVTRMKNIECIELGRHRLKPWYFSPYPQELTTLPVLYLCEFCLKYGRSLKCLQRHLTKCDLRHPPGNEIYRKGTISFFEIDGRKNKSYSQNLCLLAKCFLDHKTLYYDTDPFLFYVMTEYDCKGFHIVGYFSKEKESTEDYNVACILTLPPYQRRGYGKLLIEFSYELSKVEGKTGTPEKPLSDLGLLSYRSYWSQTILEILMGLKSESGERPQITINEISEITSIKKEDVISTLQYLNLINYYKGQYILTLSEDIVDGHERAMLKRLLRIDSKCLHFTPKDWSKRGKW
smiles,measurement,setting,value
O=C1/C(=C/c2cccc(Br)c2)CN(Cc2ccccc2)C/C1=C\c1cccc(Br)c1 [MC2884],human CD45+ cells in the bone marrow reduced to,[1],24%
same,cytotoxic effect on MePR2B,[2],insensitive
same,SirT modulating action,[3],no activity
same,HDAC modulating action,[4],no activity
same,half-life at 50 µM,"[5]; DMEM cell culture medium, read-out: half-life in cell culture media (converted)",10 h
same,time for total degradation in cell culture media,"[5]; DMEM, 50 µM",72 h
same,IC50,[6],835 nM
